Values joined by “and” are separate entries in the source; they are usually repeats but may differ in a detail not shown here. Equal values may be shown once. Marks after values point to notes of the source that are not given here.
Tests used:
[1] = system: finishing barrows; experiment: Finishing pig carcass measures and fabrication (Example IV); assay type: in vivo; conditions: 10 days
Experimental: Seven days prior to the beginning of the experiment, 10 finishing barrows (initial BW 111.9±1.6 kg) were assigned to individual pens located at the East Finisher facility of the Kansas State University Swine Teaching and Research Center (Manhattan, Kans.). Each pen was 7.4 m^2 with a slatted floor, contained a nipple waterer and an individual dry feeder that allowed ad libitum access to food and water. Barrows were randomly assigned to 1 of 2 NR treatments, 0 or 30 mg/kg daily of NR mixed in Karo® syrup and administered by oral gavage. Barrows were administered their assigned treatment for 10 days, after which they were harvested under USDA inspection. Twenty-four hours after harvest, carcass measurements were taken by trained personnel, carcasses were fabricated into the 5 major wholesale cuts, and whole-boneless loins were vacuum packaged and aged for 10 days. Loin were cut into 3 chops with chop 1 being used for day-0 metmyoglobin reducing ability (MRA) analysis, chop 2 being used for day-4 MRA and oxygen consumption rate (OCR) analyses, and chop 3 for 8-day objective/subjective color evaluation and MRA and OCR analyses.

[2] = system: growing pigs; experiment: Longissimus lumborum muscle fiber distribution and succinate dehydrogenase staining (Example III); assay type: in vivo, pig; conditions: 30 mg/kg BW, 7 days; numerical
Experimental: Nine growing pigs were blocked by bodyweight (BW) and placed in metabolism crates. After a 3-day acclimation period, pigs within each BW block were randomly assigned to a treatment (n=3 pigs/treatment). Treatments comprised pigs supplemented 0, 15, or 30 mg/kg BW NR for 7 days. Pigs were allowed ad libitum access to a standard growing diet and water. Treatments were administered daily at 8 a.m. by mixing NR in 20 mL of Karo® dark syrup and orally drenching the pigs. On day 0 and 3 of the trial, muscle biopsies of the LL were taken for NAD+ analysis using standard procedures. At day 7, pigs were transported to the Kansas State University Meats Laboratory and euthanized by a captive penetrating bolt to the brain, followed by exsanguination. Following harvest procedures, 3 g of the LL were collected for NAD+ analysis. Twenty-four hours after harvest, the whole LL not sampled at harvest was removed from the carcass and aged 10 days. After aging, the LL was cut into 6 chops for retail color stability analysis, including 6-day surface oxy- and metmyoglobin percentage, 6-day objective and subjective color panel evaluation, and day 4 and 6 metmyoglobin reducing ability (MRA).

[3] = system: Fertilized broiler eggs (Cobb 500); experiment: In ovo feeding of NR into yolk or albumen: hatched chick body and pectoralis major morphometrics (Example VI); assay type: in vivo, chicken; conditions: hatched chicks
Experimental: Fertilized broiler eggs (N=156; Cobb 500; Cobb-Vantress, Siloam Springs, Ark.) with an average weight of 70.3 g were transported in coolers to the Kansas State University Muscle Biology Laboratory (Manhattan, Kans.). Upon arrival, egg weights were recorded, eggs were ordered by weight, and within each 4 egg strata, eggs were randomly assigned to treatments within a 2×2 factorial arrangement. Factor 1 was NR treatment with eggs receiving 0 or 250 mM NR (ChromaDex, Los Angeles, Calif.). Factor 2 was injection location, with treatments injected into either the yolk or albumen. After treatment assignment, eggs were positioned with equal treatment representation onto trays and placed in an incubator (Sportsman 1502; GQF Manufacturing Company Inc., Savannah, Ga.) set to operate at a temperature of 37° C. and a relative humidity of 40±2% for the first 18 d of incubation. The incubator rotated hourly to reposition eggs, and trays were rotated daily throughout the incubator to account for variation in temperature and humidity. Tray weights were recorded each day to determine egg weight loss percentage with a target weight loss of 0.67% per day.
At d 10 of incubation, NR with the equivalent weight of 250 mM was added to 0.9% sterile saline and covered with foil to prevent exposure to light. Sets of 20 eggs representing equal treatment numbers were removed from the incubator, candled to determine location of the yolk and albumen, and the injection site was cleaned with 70% ethanol. Eggs were turned at a 90° angle and a 2.54-cm, 20-guage hypodermic needle was used to create an opening in the shell at the proper injection site. The needle was inserted approximately 1 cm into injection site and 100 μl of the 250 mM NR solution or 0.9% saline solution was injected into the egg. A 1-cm^2 portion of medical tape (Nexcare; 3M, Maplewood, Minn.) was positioned over the injection location and eggs were returned to the incubator.
On d 18 of incubation, the relative humidity of the incubator was increased to 60±2% and eggs were placed into hatching boxes at the bottom of the incubator. As chicks began to hatch, they were removed from the incubator, marked for treatment, and relocated to a box positioned underneath a heat lamp. Approximately 12 to 24 h after hatch, chicks were euthanized by prolonged exposure to CO2 gas and decapitation. Chick weights were recorded, and digital calipers (Traceable Digital Calipers; Fisher Scientific, Pittsburg, Pa.) were utilized to measure crown to rump length, head width, head length. Head and chest circumference were also collected by wrapping a string around the designated area and determining the length against a ruler.
Chick carcasses were sprayed with 70% ethanol and the skin and feathers were pulled back to reveal the pectoralis major (PM) muscles. Prior to PM muscles removal, chest width and length were measured using digital calipers. The left and right PM muscles were removed, careful to not remove the pectoralis minor muscles. The left PM was weighed and dimensions were collected using digital calipers, including length, width, and depth. This muscle was positioned onto a tongue depressor and placed into a −80° C. freezer, where it was stored until it was used for cryosectioning. The heart and liver were also removed, weighed, and discarded.

[4] = 250 mM NR, 100 μl into albumen d 10
[5] = 250 mM NR, 100 μl into yolk d 10

NC(=O)c1ccc[n+]([C@@H]2O[C@H](CO)[C@@H](O)[C@H]2O)c1 [Nicotinamide riboside, nicotinamide riboside]
1st rib subcutaneous fat ([1]; NR 30 mg/kg daily oral gavage): 1.76 cm
10th rib subcutaneous fat ([1]; NR 30 mg/kg daily oral gavage): 0.95 cm
Carcass fabrication, Belly ([1]; NR 30 mg/kg daily oral gavage): 7.93 kg
Carcass fabrication, Boneless loin ([1]; NR 30 mg/kg daily oral gavage): 10.39 kg
Carcass fabrication, Boston butt ([1]; NR 30 mg/kg daily oral gavage): 3.22 kg
Carcass fabrication, Ham ([1]; NR 30 mg/kg daily oral gavage): 9.63 kg
Carcass fabrication, Picnic shoulder ([1]; NR 30 mg/kg daily oral gavage): 4.42 kg
Carcass weight ([1]; NR 30 mg/kg daily oral gavage): 97.4 kg
Last lumbar subcutaneous fat ([1]; NR 30 mg/kg daily oral gavage): 0.83 cm
Last rib subcutaneous fat ([1]; NR 30 mg/kg daily oral gavage): 0.91 cm
Loin eye area ([1]; NR 30 mg/kg daily oral gavage): 7.3 in²
Marbling (National Pork Producers Council marbling score) ([1]; NR 30 mg/kg, 1 = none and 10 = abundant): 2.4
Color (National Pork Producers Council color score) ([1]; NR 30 mg/kg, 1 = pale pinkish gray to white, 6 = dark purplish red): 3.4
Muscle fiber distribution vs 0 mg/kg LL [2]: less type 2B (glycolytic) fibers and more type 1 and 2A (oxidative) fibers
Succinate dehydrogenase staining in type 2B fibers vs other two treatments [2]: more intense staining
Increase of PM weight ([3]; 250 mM NR into the yolk sac): 38%
Increase of PM length ([3]; 250 mM NR into the yolk sac, listed as NR): 22% and 21%
Body weight [3, 4]: 43.19 g
Chest length [3, 4]: 21.98 mm
Chest width [3, 4]: 16.57 mm
Crown-rump length [3, 4]: 96.14 mm
Head circumference [3, 4]: 32.14 mm
Head length [3, 4]: 21.29 mm
Head width [3, 4]: 15.56 mm
Heart weight [3, 4]: 0.35 g
Liver weight [3, 4]: 1.05 g
Pectoralis major depth [3, 4]: 2.43 mm
Pectoralis major length [3, 4]: 18.68^b mm
Pectoralis major weight [3, 4]: 0.14^a g
Pectoralis major width [3, 4]: 4.81 mm
Body weight [3, 5]: 44.02 g
Chest length [3, 5]: 22.68 mm
Chest width [3, 5]: 17.69 mm
Crown-rump length [3, 5]: 89.36 mm
Head circumference [3, 5]: 31.49 mm
Head length [3, 5]: 21.73 mm
Head width [3, 5]: 15.45 mm
Heart weight [3, 5]: 0.36 g
Liver weight [3, 5]: 1.11 g
Pectoralis major depth [3, 5]: 2.65 mm
Pectoralis major length [3, 5]: 20.74^c mm
Pectoralis major weight [3, 5]: 0.18^b g
Pectoralis major width [3, 5]: 5.21 mm
Increase of PM width ([3]; 250 mM NR, regardless of injection location): 9%
Increase of PM depth ([3]; 250 mM NR, regardless of injection location, listed as NR): 11% and 10%
